Source: PMC11063903, “Engineering a human P2X2 receptor with altered ligand selectivity in yeast” (The Journal of Biological Chemistry, 2024)
Positions count from the first letter of the chain named. pEC50: −log10 of the molar value.

Columns and labels:
[1] = target: T1, P2X2 F301W+A304W (Homo sapiens, UniProt Q9UBL9, A304W/F301W); test: Fast GCaMP-mScarletI assay in yeast, P2X2 F301W+A304W; assay type: cell-based; conditions: for Bottom, best fit value / Hillslope, best fit value / Top, best fit value: four-parameter logistic fit of ΔF/ΔT
T1 construct: expressed in transfected cells; host or cells: S. cerevisiae BY4741 background
T1 sequence (Q9UBL9 1-471 F301W/A304W): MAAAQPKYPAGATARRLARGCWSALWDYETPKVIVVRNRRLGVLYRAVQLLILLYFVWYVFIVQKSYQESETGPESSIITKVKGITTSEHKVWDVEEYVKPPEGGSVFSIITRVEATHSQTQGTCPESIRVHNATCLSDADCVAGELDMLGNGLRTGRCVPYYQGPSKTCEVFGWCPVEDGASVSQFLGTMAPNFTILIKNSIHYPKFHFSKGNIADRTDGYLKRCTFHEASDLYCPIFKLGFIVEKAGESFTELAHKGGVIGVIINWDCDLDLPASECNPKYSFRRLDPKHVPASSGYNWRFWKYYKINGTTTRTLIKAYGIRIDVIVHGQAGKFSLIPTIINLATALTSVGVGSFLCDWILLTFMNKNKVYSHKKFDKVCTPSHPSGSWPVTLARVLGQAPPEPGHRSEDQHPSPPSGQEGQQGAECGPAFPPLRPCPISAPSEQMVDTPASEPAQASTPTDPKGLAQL
Experimental: (§1) Figure 4 Unnatural-ligand gating in LBD libraries.A, WT P2X2 was tested with 1 mM ATP, 500 μM AMP-PNP, and compared to ATP with the broken receptor (K81C K83C) control with 1 mM ATP in the fast GCaMP-mScarletI assay (n = 3). […] B, heat map summarizing AMP-PNP signaling (ΔF/ΔT, fast GCaMP-mScarletI assay) in the site-saturation libraries (n = 2–3). All values are normalized to WT P2X2 with saturating amounts of AMP-PNP (500 μM) and therefore represent low signal (ΔF/ΔT) compared to the ATP ligand. C, F301W, F303Y, and A304W were combinatorially combined and tested against the WT, K81C K83C broken P2X2, and the single mutant clones with both ATP (1 mM, black) and AMP-PNP (500 μM, pink). […] Values here represent signal onset and are not normalized to a positive control (n = 2–5). D–K, dose response of each P2X variant with both ATP (black) and AMP-PNP (pink) in the fast GCaMP-mScarletI assay (n = 3). Statistics were performed via one-way ANOVA with Dunnett’s multiple comparisons with to the “broken” K81C K83C negative control. ∗ represents a p value ≤0.05, ∗∗ is p ≤ 0.01, and ∗∗∗ is p ≤ 0.001.
The combined mutations were synergistic, with F303Y + A304W having a predicted additive effect of ca. Ten-fold, relative to the 73-fold seen.
(§2) GCaMP assays were performed as follows. P2X2 GCaMP strains were designed with a bi-cistronic reporter, in which the GCaMP protein was followed by a 2A peptide and a mScarletI reporter ([53]). The co-translated mScarletI was designed to act as a control for plasmid loss, GCaMP breakage via nonsense mutation, and contamination. […] P2X2-GCaMP strains were cultured and induced as previously described. Samples were induced for 24 h to allow for the accumulation of the mature GCaMP protein. Cells were washed three times in 0.1 M MES/Tris buffer and resuspended with MES/Tris with supplemental calcium. Cells were loaded onto a black, clear bottom microplate and imaged on a FlexStation3 plate reader. Samples were imaged in “flex” mode. Samples were imaged for 48 s at an interval of 1.6 s. Fluorescence was measured with an excitation at 485 nm, and emission 525 nm. At the 21 s mark, 100 μl ligand solution was transferred to the cells. For strains with mScarlet, fluorescence was read with excitation 570 nm/emission 610 nm. Slopes were calculated from the last 6 points of measurement and were normalized to the positive control samples. Any replicate in which the mScarlet value was measured to be over 2 standard deviations less than the mean for that set was discarded from further analysis.
(§3) For multiple comparisons in the site-saturation screening data, One-way ANOVA with Dunnett’s multiple comparisons test was performed where every sample was compared to the “broken” negative control. Significance was plotted where ∗ represents a p value ≤0.05, ∗∗ is p ≤0.01, and ∗∗∗ is p ≤0.001. Dose–response curves were fit with nonlinear regression software using a four-parameter logistic curve. All statistics were calculated and plotted in Graphpad Prism software.

[2] = target: T2, P2X2 F301W (Homo sapiens, UniProt Q9UBL9, F301W); test: Fast GCaMP-mScarletI assay in yeast, P2X2 F301W; assay type: cell-based; conditions: for Bottom, best fit value / Hillslope, best fit value / Top, best fit value: four-parameter logistic fit of ΔF/ΔT; for Bottom, best fit value / Hillslope, best fit value / Top, best fit value / pEC50: n = 3; for pEC50: four-parameter logistic fit, unit inferred, unit M, read-out: EC50, best fit value
T2 construct: expressed in transfected cells; host or cells: S. cerevisiae BY4741 background
T2 sequence (Q9UBL9 1-471 F301W): T1 sequence (Q9UBL9 1-471 F301W/A304W) with W304A
Experimental: as §1
Given that the yeast-based screen seemed to recapitulate important structural and functional features of human ion channel function, we hypothesized that it might be possible to engineer new P2X2 functionalities in yeast, including new ligand specificity. […] We screened our 133-member library in the presence of 500 μM AMP-PNP (Fig. S7). While the AMP-PNP signal was uniformly low, three substitutions (F301W, F303Y, and A304W) increased signaling 2.5 to 2.8 times relative to the negative control receptor (Figs. 4B, and S7, D, F, and G). To gain a more complete view of the properties of these mutants, dose–response curves were generated with ATP and AMP-PNP (Fig. 4, D–G, and Table S2).
as §2, §3

SMILES | improvement compared to the WT channel (rate of signal onset ΔF/ΔT) ([1]; at 500 μM AMP-PNP) | Bottom, best fit value ([1]; n = 3) | Hillslope, best fit value ([1]; n = 3) | Top, best fit value ([1]; n = 3) | activity compared to the wild-type ([2]; AMP-PNP dose-response, Fig. 4D-G, Table S2) | Bottom, best fit value [2] | Hillslope, best fit value [2] | Top, best fit value [2] | pEC50 [2] | pEC50 ([1]; four-parameter logistic fit, n = 3, unit inferred, unit M, read-out: EC50, best fit value)
Nc1ncnc2c1ncn2[C@@H]1O[C@H](COP(=O)(O)OP(=O)(O)NP(=O)(O)O)[C@@H](O)[C@H]1O [AMP-PNP] | 24 fold | -0.492 | 1.649 | 81.84 | 5.28 fold | 0.4523 | 2.135 | 5.973 | 3.67 | 
Nc1ncnc2c1ncn2[C@@H]1O[C@H](COP(=O)(O)OP(=O)(O)OP(=O)(O)O)[C@@H](O)[C@H]1O [ATP] |  | -5.28 | 1.07 | 207.50 |  | -0.0044 | 0.94 | 37.70 | 5.30 | 4.68
